Test results published in the NIST ThermoML archive (doi:10.1016/j.jct.2005.04.011).
± gives the expanded uncertainty stated by the source.

Tests used:
[1] = cn = amount concentration of the nth substance listed, in mol/dm3; conditions: 101 kPa, Liquid, c1 = 0.2; for mass density: Pycnometric method
[2] = refractive index (Na D-line) (dimensionless); cn = amount concentration of the nth substance listed, in mol/dm3; conditions: 101 kPa, Liquid, Standard Abbe refractometry, c1 = 0.2

O=C[C@H](O)[C@@H](O)[C@H](O)[C@H](O)CO [D-glucose] + O
Conditions | mass density, 298.15 K [kg/m3] | mass density, 313.15 K [kg/m3] | refractive index, 298.15 K | refractive index, 303.15 K | refractive index, 308.15 K | refractive index, 313.15 K | viscosity, 298.15 K [mPa·s] | viscosity, 303.15 K [mPa·s] | viscosity, 308.15 K [mPa·s] | viscosity, 313.15 K [mPa·s]
[1] | 1010.3 ± 0.3 | 1005.3 ± 0.4 | – | – | – | – | 1.01 ± 0.03 | 0.89 ± 0.02 | 0.8 ± 0.02 | 0.7 ± 0.02
[2] | – | – | 1.336 ± 0.002 | 1.335 ± 0.002 | 1.3349 ± 0.002 | 1.334 ± 0.002 | – | – | – | –
